“Also recorded” adds a separate entry of the source. Where two headings read alike, the source gives them in different places. Blank lines part the entries; values can stand above or below the molecule they belong to.
Columns and labels:
[1] = tested on: Glucose dehydrogenase (immobilized enzyme); conditions: substrate glucose, NADP; 1M additive/buffer pH 7.0; 25° C. for 30 minutes
Protocol: (§1) The solution was stirred at 25° C. for 30 minutes to allow the enzyme to react with the substrate. Then, WST1 and mPMS were added for color development. Absorbance was measured with a spectrophotometer.

[2] = tested on: Glutamate dehydrogenase (immobilized enzyme); conditions: substrate monosodium glutamate, NADP; 1M additive/buffer pH 7.0; 25° C. for 30 minutes
Protocol: as §1

[3] = tested on: Formate dehydrogenase (immobilized enzyme); conditions: substrate sodium formate, NAD; 1M additive/buffer pH 7.0; 25° C. for 30 minutes
Protocol: as §1

[4] = tested on: Formate dehydrogenase (immobilized enzyme); assay: Effects of heterocyclic compounds on activity of immobilized formate dehydrogenase (WST1/mPMS, absorbance), Examples 4-8; conditions: for enzyme activity of immobilized enzyme in the presence of the heterocyclic compound (in words): immobilized formate dehydrogenase, Examples 4-8
Protocol: A support was applied a fibrous base material cut in pieces 1 cm^2 in area, followed by drying. Each piece of fibrous base material was allowed to absorb a liquid obtained by mixing 2.5% glutaraldehyde, 20% poly-L-lysine, 10 mM Tris-HCl (pH 8.0), and formate dehydrogenase, followed by drying. Thus, immobilized enzymes were prepared.
The solution was stirred at 25° C. for 30 minutes to induce a reaction. Then, WST1 and mPMS were added for color development. Absorbance was measured with a spectrophotometer (Infinite M200 manufactured by TECAN).

Molecule: Cl.c1c[nH]cn1 [Example 1, imidazole HCl]
OD [1]: 0.4668

Molecule: Cl.c1c[nH]cn1 [Example 2, imidazole HCl]
OD [2]: 1.1707

Molecule: Cl.c1c[nH]cn1 [Example 3, imidazole HCl]
OD [3]: 0.5996

Molecule: c1cnccn1 [Example 4, Pyrazine]
enzyme activity of immobilized enzyme in the presence of the heterocyclic compound (in words) [4]: excellent enzyme activity; also recorded: significantly improved enzyme activity

Molecule: O=C1NCCN1 [Example 5, 2-Imidazolidinone]
enzyme activity of immobilized enzyme in the presence of the heterocyclic compound (in words) [4]: excellent enzyme activity; also recorded: significantly improved enzyme activity

Molecule: C=Cn1ccnc1 [Example 6, 1-Vinylimidazole]
enzyme activity of immobilized enzyme in the presence of the heterocyclic compound (in words) [4]: excellent enzyme activity; also recorded: significantly improved enzyme activity

OD ([4]; 0.2M heterocyclic compound, 25° C. for 30 minutes): 1.1902
enzyme activity of immobilized enzyme in the presence of the heterocyclic compound (in words) [4]: excellent enzyme activity
Molecule: N[C@@H](Cc1c[nH]cn1)C(=O)O [Example 8, Histidine]

Molecule: sodium phosphate buffer [Comparative Example 1, reference compound]
OD [1]: 0.1598

OD [3]: 0.4134
Molecule: sodium phosphate buffer [Comparative Example 3, reference compound]

OD [2]: 0.3966
Molecule: sodium phosphate buffer [reference compound]
